PMC10041525, “New Dual Inhibitors of Bacterial Topoisomerases with Broad-Spectrum Antibacterial Activity and In Vivo Efficacy against Vancomycin-Intermediate Staphylococcus aureus” (Journal of Medicinal Chemistry, 2023)
Read-outs that look alike come from different tables or passages of the source.

Tested on: 100 A. baumannii strains (50 MDR, 50 non-MDR)
Experiment: MIC broth microdilution at IHMA Europe, panel of 100 strains
Assay type: cell-based
Settings: Acinetobacter baumannii, read-out: MIC

Measured: MIC

CN(C)c1cc(NC(=O)CNC(C)(C)C)c(O)c2c1C[C@H]1C[C@H]3[C@H](N(C)C)C(O)=C(C(N)=O)C(=O)[C@@]3(O)C(O)=C1C2=O [Tigecycline, tigecycline]
0.25 µg/mL: A. baumannii IHMA 1769393, Lithuania 2018, Non-MDR | A. baumannii IHMA 1821468, South Africa 2018, Non-MDR | A. baumannii IHMA 1849829, Kuwait 2018, Non-MDR | A. baumannii IHMA 1857118, Slovenia 2018, Non-MDR | A. baumannii IHMA 1863631, France 2018, Non-MDR | A. baumannii IHMA 1884428, Italy 2018, Non-MDR | A. baumannii IHMA 1900538, Turkey 2018, Non-MDR | A. baumannii IHMA 1913773, Kenya 2018, Non-MDR | A. baumannii IHMA 1997936, Morocco 2019, Non-MDR | A. baumannii IHMA 1999178, Belgium 2019, Non-MDR | A. baumannii IHMA 2014931, South Africa 2019, Non-MDR | A. baumannii IHMA 2034657, Tunisia 2019, Non-MDR | A. baumannii IHMA 2058329, Slovenia 2019, Non-MDR | A. baumannii IHMA 2065587, France 2019, Non-MDR
4 µg/mL: A. baumannii IHMA 1769782, Israel 2018, MDR | A. baumannii IHMA 1814276, Lebanon 2018, MDR | A. baumannii IHMA 1815198, Kuwait 2018, MDR | A. baumannii IHMA 1849819, Kuwait 2018, MDR | A. baumannii IHMA 1926288, Qatar 2018, MDR | A. baumannii IHMA 1963732, Turkey 2019, MDR | A. baumannii IHMA 1967860, Spain 2019, Non-MDR | A. baumannii IHMA 1984665, Lithuania 2019, MDR | A. baumannii IHMA 1986738, Turkey 2019, MDR | A. baumannii IHMA 2020360, Croatia 2019, MDR | A. baumannii IHMA 2035089, Serbia 2019, MDR
0.12 µg/mL: A. baumannii IHMA 1790916, Romania 2018, Non-MDR | A. baumannii IHMA 1870054, United States 2018, Non-MDR | A. baumannii IHMA 1884990, Germany 2018, Non-MDR | A. baumannii IHMA 1926285, Qatar 2018, Non-MDR | A. baumannii IHMA 1957343, Portugal 2019, Non-MDR | A. baumannii IHMA 1995161, Czech Republic 2019, Non-MDR | A. baumannii IHMA 2014367, Jordan 2019, Non-MDR | A. baumannii IHMA 2019315, Romania 2019, Non-MDR | A. baumannii IHMA 2031511, Greece 2019, Non-MDR | A. baumannii IHMA 2035134, Serbia 2019, Non-MDR | A. baumannii IHMA 2129256, Qatar 2019, Non-MDR
0.5 µg/mL: A. baumannii IHMA 1829500, Georgia 2018, Non-MDR | A. baumannii IHMA 1830924, United Kingdom 2018, Non-MDR | A. baumannii IHMA 1975075, Israel 2019, Non-MDR | A. baumannii IHMA 1977077, Kuwait 2019, Non-MDR | A. baumannii IHMA 1986678, Turkey 2019, Non-MDR | A. baumannii IHMA 1993615, Turkey 2019, MDR | A. baumannii IHMA 2099294, United Kingdom 2019, Non-MDR
2 µg/mL: A. baumannii IHMA 1769910, Israel 2018, Non-MDR | A. baumannii IHMA 1791877, Israel 2018, MDR | A. baumannii IHMA 1792961, Jordan 2018, MDR | A. baumannii IHMA 1815856, Israel 2018, MDR | A. baumannii IHMA 1971673, Latvia 2019, MDR | A. baumannii IHMA 1983151, Greece 2019, MDR | A. baumannii IHMA 1987162, Croatia 2019, MDR | A. baumannii IHMA 2003279, Turkey 2019, MDR | A. baumannii IHMA 2038976, Hungary 2019, MDR | A. baumannii IHMA 2051503, Serbia 2019, MDR | A. baumannii IHMA 2154584, Israel 2020, MDR
0.06 µg/mL: A. baumannii IHMA 1790317, Czech Republic 2018, Non-MDR | A. baumannii IHMA 1795669, Tunisia 2018, Non-MDR
1 µg/mL: A. baumannii IHMA 1994284, Italy 2019, MDR | A. baumannii IHMA 2031524, Greece 2019, MDR
